Patent US4034092A, “7-Acyl-3-(carboxyalkyl and carbamoylalkyl substituted oxadiazolylthiomethyl) cephalosporins” (SmithKline Corporation, priority 1976, dated 1977)
Converted amounts (≈) assume the structure as drawn. Like-named read-outs stand apart in the source and are kept apart here.

What was measured:
Strep. faecalis HH 34358 = assay: in vitro MIC testing, Strep. faecalis HH 34358; type: cell-based; settings: Enterococcus faecalis, HH34358
Procedure: (§1) The compounds of Formula I have exceptional antibacterial activity against both Gram-positive and Gram-negative organisms. Minimum inhibitory concentrations (MIC's) range from 0.2 to >200 μg./ml. in in vitro testing. Test results for the compound 7-D-mandelamido-3-(5-carboxymethyl-1,3,4-oxadiazol-2-ylthiomethyl)-3-cephem-4-carboxylic acid and its disodium salt, respectively, are given below: […]

S. villaluz SK 70390 = assay: in vitro MIC testing, S. villaluz SK 70390; type: cell-based
Procedure: as §1

[1] = system: Serratia marc. ATCC 13880; assay: in vitro MIC testing, Serratia marc. ATCC 13880; type: cell-based; settings: ATCC13880
Procedure: as §1

E. coli SK 12140 = assay: in vitro MIC testing, E. coli SK 12140; type: cell-based; settings: Escherichia coli, SK12140
Procedure: as §1

S. aureus SK 23390 = assay: in vitro MIC testing, S. aureus SK 23390; type: cell-based; settings: Staphylococcus aureus, SK23390
Procedure: as §1

Kleb. pneumo. SK 1200 = assay: in vitro MIC testing, Kleb. pneumo. SK 1200; type: cell-based
Procedure: as §1

E. coli HH 33779 = assay: in vitro MIC testing, E. coli HH 33779; type: cell-based; settings: Escherichia coli, HH33779
Procedure: as §1

Pseudo. aerug. HH 63 = assay: in vitro MIC testing, Pseudo. aerug. HH 63; type: cell-based
Procedure: as §1

Salmonella ATCC 12176 = assay: in vitro MIC testing, Salmonella ATCC 12176; type: cell-based; settings: ATCC12176
Procedure: as §1

Shigella HH 117 = assay: in vitro MIC testing, Shigella HH 117; type: cell-based; settings: HH117
Procedure: as §1

S. aureus HH 125 = assay: in vitro MIC testing, S. aureus HH 125; type: cell-based; settings: Staphylococcus aureus, HH125
Procedure: as §1

Kleb. pneumo. 4200 = assay: in vivo mouse protection test, Kleb. pneumo. 4200; settings: sc, subcutaneous injection, against Kleb. pneumo. 4200
Description: (§2) 4200 upon subcutaneous injection.

Proteus morgani 179 = assay: in vitro MIC testing, Proteus morgani 179; type: cell-based
Procedure: as §1

[2] = system: Entero. aerog. ATCC 13048; assay: in vitro MIC testing, Entero. aerog. ATCC 13048; type: cell-based
Procedure: as §1

Kleb. pneumo. SK 4200 = assay: in vitro MIC testing, Kleb. pneumo. SK 4200; type: cell-based
Procedure: as §1

E. coli 12140 = assay: in vivo mouse protection test, E. coli 12140; settings: Escherichia coli, sc; subcutaneous injection; against E. coli 12140
Description: as §2

Entero. cloacae HH 31254 = assay: in vitro MIC testing, Entero. cloacae HH 31254; type: cell-based; settings: Enterobacter cloacae, HH31254
Procedure: as §1

O=C([O-])Cc1nnc(SCC2=C(C(=O)[O-])N3C(=O)C(NC(=O)[C@H](O)c4ccccc4)[C@H]3SC2)o1.[Na+].[Na+] (stereo partly drawn) [7-D-Mandelamido-3-(5-carboxymethyl-1,3,4-oxadiazol-2-ylthiomethyl)-3-cephem-4-carboxylic acid disodium salt]
MIC (Strep. faecalis HH 34358): 50 µg/mL | MIC (S. villaluz SK 70390): 200 µg/mL | MIC ([1]; Serratia): 50 µg/mL | MIC (E. coli SK 12140): 0.8 µg/mL | MIC (S. aureus SK 23390): 0.8 µg/mL | MIC (Kleb. pneumo. SK 1200): 0.4 µg/mL | MIC (E. coli HH 33779): 3.1 µg/mL | MIC (Pseudo. aerug. HH 63): > 200 µg/mL | MIC (Salmonella ATCC 12176): 0.8 µg/mL | MIC (Shigella HH 117): 0.4 µg/mL | MIC (S. aureus HH 125): 3.1 µg/mL

O=C(O)Cc1nnc(SCC2=C(C(=O)O)N3C(=O)C(NC(=O)[C@H](O)c4ccccc4)[C@H]3SC2)o1 (stereo partly drawn) [7-D-Mandelamido-3-(5-carboxymethyl-1,3,4-oxadiazol-2-ylthiomethyl)-3-cephem-4-carboxylic acid]
ED50 (Kleb. pneumo. 4200): 0.86 mg/kg | MIC (Strep. faecalis HH 34358; in vitro, Strep. faecalis HH 34358, read-out: MIC): 12.5 µg/mL (≈ 24.7 µM) | MIC (S. villaluz SK 70390): 50 µg/mL (≈ 98.7 µM) | MIC (Proteus morgani 179): 6.3 µg/mL (≈ 12.4 µM) | MIC [2]: 3.1 µg/mL (≈ 6.12 µM) | MIC (Kleb. pneumo. SK 4200): 0.8 µg/mL (≈ 1.58 µM) | MIC ([1]; in vitro, Serratia marc. ATCC 13880, read-out: MIC): 25 µg/mL (≈ 49.4 µM) | MIC (E. coli SK 12140): 0.8 µg/mL (≈ 1.58 µM) | MIC (S. aureus SK 23390; in vitro, S. aureus SK 23390, read-out: MIC): 0.4 µg/mL (≈ 0.79 µM) | MIC (Kleb. pneumo. SK 1200; in vitro, Kleb. pneumo. SK 1200, read-out: MIC): 0.8 µg/mL (≈ 1.58 µM) | MIC (E. coli HH 33779): 1.6 µg/mL (≈ 3.16 µM) | ED50 (E. coli 12140): 1.56 mg/kg | MIC (Pseudo. aerug. HH 63): > 200 µg/mL | MIC (Salmonella ATCC 12176): 0.8 µg/mL (≈ 1.58 µM) | MIC (Shigella HH 117): 0.2 µg/mL (≈ 0.395 µM) | MIC (S. aureus HH 125; in vitro, S. aureus HH 125, read-out: MIC): 1.6 µg/mL (≈ 3.16 µM) | MIC (Entero. cloacae HH 31254): 1.6 µg/mL (≈ 3.16 µM)
